Assay results: patent publication US8609413B2, “Neurons, astrocytes and oligodendrocytes differentiated from a mammalian pluripotent or neural stem cells exposed to a pyridine deriviative” (Research Development Foundation, priority 2007, dated 2013)

How the values were obtained:
[1] = tested on: mouse ES cells; details: literature reports; cited from earlier work
[2] = tested on: human ES cells; assay: TWS119 tested by the inventors on human ES cells; assay type: cell-based
[3] = tested on: human ESC-derived NPC / ESC aggregates; assay: Air/liquid interface three-dimensional culture with added factors; assay type: cell-based; details: exogenously added factor
Description: Air/liquid interface expansion/differentiation of NPC may be performed via the following protocol. One or more rosettes-enriched clusters may be manually removed and multiple clusters (e.g., about 5-10 clusters) may be plated on a hydrophilic polytetrafluoroethylene (PTFE) membrane (e.g., 6 mm diameter, 0.4 μm, BioCell-Interface, La Chaux-de-Fonds, Switzerland). This membrane may be deposited on a Millicell®-CM (0.4 μm) Culture Plate Insert (Millipore) (FIG. 5A). N2 medium may preferably be added (e.g., about 1 ml) underneath the membrane insert.
Air/liquid interface expansion/differentiation of NPC. Rosettes-enriched cluster were manually removed and 5-10 clusters were plated on a hydrophilic polytetrafluoroethylene (PTFE) membrane (6 mm diameter, 0.4 μm, BioCell-Interface, La Chaux-de-Fonds, Switzerland). This membrane was deposited on a Millicell®-CM (0.4 μm) Culture Plate Insert (Millipore) (FIG. 1). One ml of N2 medium was added underneath the membrane insert.

In the case of `Cc1cccc(C#Cc2ccccc2)n1` [MPEP, 2-methyl-6-(phenylethynyl)-pyridine], the “neuronal differentiation of mouse ES cells” value [1] is listed as “enhances their differentiation towards neurons”.
In the case of `Nc1cccc(-c2cc3c(Oc4cccc(O)c4)ncnc3[nH]2)c1` [TWS119], the cell growth [2] is given as “decreased cell growth”, the neuronal differentiation [2] is given as “only small effect on neuronal differentiation” and the “neuronal differentiation of mouse ES cells” value [1] is given as “enhanced neuronal differentiation of mouse ES cells”.
For EGF: epidermal growth factor, the “phenotype of engineered tissue” value [3] was “did not induce phenotypic changes” and the “size of engineered tissue” value [3] was “moderate increase”.
For “FGF-2: basic fibroblast growth factor, exogenously added growth factor”, the “phenotype of engineered tissue” value [3] was “did not induce phenotypic changes” and the “size of engineered tissue” value [3] was “moderate increase”.
